This note sets out measurements from patent US20250255850A1, “PHARMACEUTICAL COMPOSITIONS FOR TREATING NEUROLOGICAL CONDITIONS” (YISSUM RESEARCH DEVELOPMENT COMPANY OF THE HEBREW …, priority 2021, published 2025).

Experiment [1] has as its system 3-nitrotyrosine. Description: Western blot of 3-nitrotyrosine in cortical tissue, CNTNAP2(-/-) mutant group (M2). It counts as in vivo, mouse. The following applies: CNTNAP2(-/-) mutant mice treated with 7-NI (M2+7-NI) vs M2. On the procedure: Behavioral testing started after 2 hours of treatment.
To further corroborate these findings, the expression of 3-nitrotyrosine in cortical tissue of the wild type (WT), compared with the SHANK3 mutant group (M1), and SHANK3 group treated with 7-NI (M1+7-NI), and in cortical tissue of the wild type (WT), compared with the CNTNAP2^(−/−) mutant group (M2), and the CNTNAP2^(−/−) mutant group treated with 7-NI (M2+7—NI) was tested, and the obtained data is presented in FIGS. 3C-D (for M1) and in FIGS. 3E-F (for M2).
(Immunoblotting shows a protein as a band on a membrane.)

For experiment [2], the target named is T1, nNOS (Homo sapiens, UniProt P29475).
T1 construct: SH-SY5Y cells grown in six-well culture plates were lysed in 50 mM Tris-HCl buffer (pH 7.4); endogenous in cells; host or cells: SH-SY5Y (human neuroblastoma, ATCC)
Briefly: NADPH-diaphorase activity assay in SH-SY5Y cell lysates. The format is cell-based. To be noted: 7-NI 100 μM 24 hours or 20 nM nNOS siRNA 24 hours. On the procedure: Human NB SH-SY5Y cells were obtained from the American Type Culture Collection (ATCC) and maintained in Dulbecco's modified Eagle's medium (DMEM) and Ham's F-12 (1:1) supplemented with 10% fetal bovine serum, 2 mM L-glutamine, and 100 U/ml penicillin-G/100 […] streptomycin in a humidified atmosphere (37° C., 5% CO2). Cells were plated onto 25 cm^2 and 75 cm^2 plates at a density of 7.0×10^5 and 2.1×10^6 cells/cm^2 respectively for Western blotting (WB) and 1×10^5 for immunofluorescence. The SH-SY5Y cells were treated with 100 μM 7-nitroindazole (7-NI) for 24 hours (Fujibayashi et al., 2015). This concentration was confirmed in a dose-response experiment (FIG. 14A) using an MTT viability assay. […]
The NADPH-diaphorase activity assay was used to determine the NOS activity based on the NADPH-dependent reduction of nitro-blue tetrazolium salt (NBT) to visible formazan (Amaroli and Chessa, 2012; Seckler et al., 2020). […] After a 15 min incubation period at 37° C., the production of formazan was measured spectrophotometrically at 585 nm. The data were expressed as absorbance units and normalized for the protein content of each sample. Protein concentration was measured by the bicinchoninic acid (BCA) protein assay using BSA as a standard (Ortiz-Ortiz et al., 2009). Released NO was measured using a Griess Assay Kit (Beyotime, Shanghai, China) according to the manufacturer's instructions.

In experiment [3] the test system is SH-SY5Y cells. Description: Confocal immunofluorescence of synaptophysin and 3-nitrotyrosine. It counts as cell-based, human. To be noted: pharmacological inhibition (7-NI) or knockdown of nNOS. On the procedure:
FIGS. 18A-C show immunofluorescence of synaptophysin and 3-nitrotyrosine in SH-SY5Y cells with inhibited nNOS activity. Cells (with or without treatment) were postfixed in 4% paraformaldehyde and then incubated with the primary rabbit monoclonal Syp (red), and either primary mouse monoclonal NeuN (green), or primary mouse monoclonal 3-Ntyr (green) antibodies, in another group of cells. Cells were incubated with their respective secondary antibodies, such as anti-mouse Alexa fluor488, or anti-rabbit Alexa fluor594, and then mounted with DAPI (Blue) in both groups of cells. The images were acquired using a confocal microscope. Groups of cells: SH-SY5Y, SH-SY5Y+7-NI, and SH-SY5Y+si-nNOS. Each group consisted of three independent sets of experiments and was run in triplicates. The initial cell seed number was ˜10^6/cm^2. FIG. 18A presents representative images of Syp and 3-Ntyr immunofluorescence. FIGS. 18B-C are bar graphs showing the relative fluorescent intensity of Syp (FIG. 18B) and N-Tyr (FIG. 18C) immunofluorescence in the 3 groups of cells. The data are presented as mean±SEM. One-way ANOVA followed by Fisher's LSD multiple comparison post hoc test was conducted. *P<0.05, **P<0.01, ***P<0.001. The scale bar is 100 μm. […]

T1 sequence (P29475 whole entry): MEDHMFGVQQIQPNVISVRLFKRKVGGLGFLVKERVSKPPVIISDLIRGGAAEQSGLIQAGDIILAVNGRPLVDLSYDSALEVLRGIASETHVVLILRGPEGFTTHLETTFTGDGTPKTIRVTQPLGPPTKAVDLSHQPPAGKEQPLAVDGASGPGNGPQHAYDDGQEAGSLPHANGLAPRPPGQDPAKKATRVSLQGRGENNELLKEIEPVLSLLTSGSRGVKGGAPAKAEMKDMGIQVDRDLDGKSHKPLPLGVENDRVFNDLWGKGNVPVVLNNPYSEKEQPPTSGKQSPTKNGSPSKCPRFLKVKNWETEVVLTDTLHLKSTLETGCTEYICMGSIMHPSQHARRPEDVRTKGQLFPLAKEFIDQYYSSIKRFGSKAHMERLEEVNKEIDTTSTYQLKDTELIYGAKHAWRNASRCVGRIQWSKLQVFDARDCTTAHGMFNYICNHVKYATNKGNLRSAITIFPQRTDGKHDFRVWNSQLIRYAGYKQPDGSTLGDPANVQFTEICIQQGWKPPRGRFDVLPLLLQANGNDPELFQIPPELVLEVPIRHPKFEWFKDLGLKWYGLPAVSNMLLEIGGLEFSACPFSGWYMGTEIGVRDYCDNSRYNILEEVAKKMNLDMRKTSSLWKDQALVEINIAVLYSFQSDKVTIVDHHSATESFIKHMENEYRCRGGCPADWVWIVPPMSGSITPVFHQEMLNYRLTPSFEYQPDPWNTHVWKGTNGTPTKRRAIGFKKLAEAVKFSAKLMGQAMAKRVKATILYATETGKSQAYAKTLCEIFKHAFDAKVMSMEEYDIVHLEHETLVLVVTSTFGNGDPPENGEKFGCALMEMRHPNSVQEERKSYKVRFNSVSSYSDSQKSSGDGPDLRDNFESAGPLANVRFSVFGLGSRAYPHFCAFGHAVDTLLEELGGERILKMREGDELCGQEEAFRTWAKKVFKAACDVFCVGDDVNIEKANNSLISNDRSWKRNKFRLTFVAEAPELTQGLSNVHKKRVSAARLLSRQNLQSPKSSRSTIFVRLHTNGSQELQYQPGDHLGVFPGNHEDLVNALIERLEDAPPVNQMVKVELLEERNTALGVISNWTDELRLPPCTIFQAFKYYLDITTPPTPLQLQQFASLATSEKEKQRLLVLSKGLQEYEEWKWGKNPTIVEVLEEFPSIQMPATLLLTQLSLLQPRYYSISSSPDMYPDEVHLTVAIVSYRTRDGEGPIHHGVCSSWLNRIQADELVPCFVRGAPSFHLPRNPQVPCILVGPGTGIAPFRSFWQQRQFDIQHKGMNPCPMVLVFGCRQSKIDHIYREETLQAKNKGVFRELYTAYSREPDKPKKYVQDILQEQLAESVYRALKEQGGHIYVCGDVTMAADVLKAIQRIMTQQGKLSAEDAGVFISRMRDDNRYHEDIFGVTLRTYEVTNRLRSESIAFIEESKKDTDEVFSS

`O=[N+]([O-])c1cccc2cn[nH]c12` [7-NI, 7-nitroindazole]: the “expression of 3-Ntyr in cortical tissue” value in experiment [1] is on record as “reduced the expression of 3-Ntyr”. The NADPH diaphorase activity result in experiment [2] is recorded as “significantly inhibited”. In experiment [3], the “intensity of 3-Ntyr immunofluorescence” value was “significantly decreased the intensity” and the “intensity of Syp immunofluorescence” value is “significantly decreased the intensity”.
